Experiments:
[1] = system: Cyperus iria; assay: Preemergence weed control under flooded paddy conditions, CYPIR (Rice Flatsedge); format: in vivo; conditions: preemergence weeds, flooded paddy, rated three to four weeks after treatment
[2] = system: Oryza sativa, (L.) Tebonnet; assay: Rice tolerance to post-transplant applications under flooded paddy conditions (Example 187), ORYSAT (Rice, Tebonnet); conditions: rated three to four weeks after treatment
[3] = system: Cyperus serotinus, Rottb.; assay: Preemergence weed control under flooded paddy conditions, CYPSE (Flatsedge); format: in vivo; conditions: preemergence weeds, rated three to four weeks after treatment
[4] = system: Sagittaria pygmaea, L.; assay: Preemergence weed control under flooded paddy conditions, SAGPY (Arrowhead (Pygmaea)); format: in vivo; conditions: preemergence weeds, flooded paddy, rated three to four weeks after treatment
[5] = system: Echinochloa oryzoides (Ard.) Fritsch.; assay: Preemergence weed control under flooded paddy conditions, ECHORC (Watergrass (Calif.)); format: in vivo; conditions: preemergence weeds, flooded paddy, rated three to four weeks after treatment
[6] = system: Monochoria vaginalis, Presl.; assay: Preemergence weed control under flooded paddy conditions, MOOVA (Monochoria); format: in vivo; conditions: preemergence weeds, flooded paddy, rated three to four weeks after treatment
Further: meaning of each grade not given here.

Row | SMILES | herbicidal effect rating, CYPIR ([1]; Rate 0.0320 kg/ha) | herbicidal effect rating, CYPIR ([1]; Rate 0.0620 kg/ha) | herbicidal effect rating, CYPIR ([1]; Rate 0.1250 kg/ha) | herbicidal effect rating, CYPIR ([1]; Rate 0.2500 kg/ha) | herbicidal effect rating ORYSAT ([2]; Rate 0.0320 kg/ha) | herbicidal effect rating ORYSAT ([2]; Rate 0.0620 kg/ha) | herbicidal effect rating ORYSAT ([2]; Rate 0.1250 kg/ha) | herbicidal effect rating ORYSAT ([2]; Rate 0.2500 kg/ha) | herbicidal effect rating, CYPSE ([3]; Rate 0.0320 kg/ha) | herbicidal effect rating, CYPSE ([3]; Rate 0.0620 kg/ha) | herbicidal effect rating, CYPSE ([3]; Rate 0.1250 kg/ha) | herbicidal effect rating, CYPSE ([3]; Rate 0.2500 kg/ha) | herbicidal effect rating, SAGPY ([4]; Rate 0.0320 kg/ha) | herbicidal effect rating, SAGPY ([4]; Rate 0.0620 kg/ha) | herbicidal effect rating, SAGPY ([4]; Rate 0.1250 kg/ha) | herbicidal effect rating, SAGPY ([4]; Rate 0.2500 kg/ha) | herbicidal effect rating, ECHORC ([5]; Rate 0.0320 kg/ha) | herbicidal effect rating, ECHORC ([5]; Rate 0.0620 kg/ha) | herbicidal effect rating, ECHORC ([5]; Rate 0.1250 kg/ha) | herbicidal effect rating, ECHORC ([5]; Rate 0.2500 kg/ha) | other results
1 | CC(O)c1nsc2ccc(-n3c(=O)cc(C(F)(F)F)n(C)c3=O)cc12 (stereo not drawn) [Example 308, 2,4(1H,3H)-Pyrimidinedione, 3-[3-(1-hydroxyethyl)-1,2-benzisothiazol-5-yl]-1-methyl-6-(trifluoromethyl)-] | 0.0 | 0.0 | 0.0 | 0.0 | 5.0 | 5.0 | 6.0 | 7.0 | 0.0 | 0.0 | 3.0 | 9.0 | 0.0 | 0.0 | 3.0 | 9.0 | 5.0 | 5.0 | 6.0 | 9.0 | herbicidal effect rating, MOOVA ([6]; Rate 0.0320 kg/ha): 0.0; herbicidal effect rating, MOOVA ([6]; Rate 0.0620 kg/ha): 0.0; herbicidal effect rating, MOOVA ([6]; Rate 0.1250 kg/ha): 0.0; herbicidal effect rating, MOOVA ([6]; Rate 0.2500 kg/ha): 0.0
2 | Cn1c(C(F)(F)F)cc(=O)n(-c2ccc3snc(CN=C=S)c3c2)c1=O [Example 311, Isothiocyanic acid, {5-[3,6-dihydro-3-methyl-2,6-dioxo-4-(trifluoromethyl)-1(2H)-pyrimidinyl]-1,2-benzisothiazol-3-yl}methyl ester] | 0.0 | 9.0 | 9.0 | 9.0 | 0.0 | 0.0 | 2.0 | 2.0 | 0.0 | 0.0 | 0.0 | 0.0 | 0.0 | 0.0 | 0.0 | 0.0 | 0.0 | 0.0 | 0.0 | 0.0 | herbicidal effect rating, MOOVA ([6]; Rate 0.0320 kg/ha): 0.0; herbicidal effect rating, MOOVA ([6]; Rate 0.0620 kg/ha): 9.0; herbicidal effect rating, MOOVA ([6]; Rate 0.1250 kg/ha): 9.0; herbicidal effect rating, MOOVA ([6]; Rate 0.2500 kg/ha): 9.0
